Measurements as given in patent US11780893B2, “Kv1.3 blockers” (Zealand Pharma A/S, priority 2019, dated 2023).
Bridge positions count the residues as written; N and C are the ends. Square brackets hold non-standard residues; d marks the D form. Peptide text beside a SMILES is read from it. Nle = CCCC[C@H](N)C(=O)O

Target: T1, human Kv1.3 voltage-gated K+ channel (Homo sapiens, UniProt P22001)
T1 construct: host or cells: CHO-DUKX
Assay: cell-based
Conditions: inhibition of thallium flux, CHO-DUKX cells with human Kv1.3; read-out: IC50

T1 sequence (P22001 whole entry): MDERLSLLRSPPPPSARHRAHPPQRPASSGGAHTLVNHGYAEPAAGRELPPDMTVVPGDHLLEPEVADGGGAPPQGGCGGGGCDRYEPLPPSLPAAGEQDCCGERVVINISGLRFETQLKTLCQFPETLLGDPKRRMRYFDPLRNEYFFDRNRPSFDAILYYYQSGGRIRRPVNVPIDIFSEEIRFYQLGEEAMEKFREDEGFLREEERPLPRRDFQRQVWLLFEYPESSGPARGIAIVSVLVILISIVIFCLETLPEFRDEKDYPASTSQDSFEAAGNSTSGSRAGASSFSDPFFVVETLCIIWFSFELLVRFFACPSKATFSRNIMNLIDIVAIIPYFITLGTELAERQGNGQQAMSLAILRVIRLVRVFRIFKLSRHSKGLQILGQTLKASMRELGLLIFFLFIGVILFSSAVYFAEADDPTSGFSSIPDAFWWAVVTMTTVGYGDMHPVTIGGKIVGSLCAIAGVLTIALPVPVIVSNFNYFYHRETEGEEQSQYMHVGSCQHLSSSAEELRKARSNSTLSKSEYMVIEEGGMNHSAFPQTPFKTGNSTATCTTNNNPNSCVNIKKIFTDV

| Structure (SMILES) | IC50 |
| --- | --- |
| CCCC[C@H](NC(=O)[C@H](CC(=O)O)NC(=O)[C@H](CCSC)NC(=O)[C@@H](N)CC(N)=O)C(=O)N[C@@H](CCCNC(=N)N)C(=O)N[C@H]1CSSC[C@@H]2NC(=O)[C@H](CCCCN)NC(=O)CNC(=O)[C@H](Cc3ccccc3)NC(=O)[C@H]([C@@H](C)CC)NC(=O)[C@H](CO)NC(=O)CNC(=O)[C@H]([C@@H](C)CC)NC(=O)[C@H](C)NC(=O)[C@H](CCCCN)NC(=O)[C@H](CC(C)C)NC(=O)[C@@H]3CSSC[C@@H](C(=O)N[C@@H](Cc4ccc(O)cc4)C(=O)N4CCC[C@H]4C(=O)N[C@@H](CCCNC(=N)N)C(N)=O)NC(=O)[C@H](CCCCN)NC(=O)[C@H](CSSC[C@H](NC(=O)[C@H](CCC(=O)O)NC(=O)[C@H](C(C)C)NC(=O)[C@H](CO)NC(=O)[C@H](C)NC(=O)[C@H](CO)NC1=O)C(=O)N[C@@H](CCCCN)C(=O)N[C@@H](CCC(N)=O)C(=O)N[C@@H](CCCCN)C(=O)N3)NC(=O)[C@H](CCCCN)NC(=O)[C@H](CCCCN)NC(=O)[C@H](CC(N)=O)NC(=O)[C@H](CCSC)NC2=O [Compound 15] (H-NMD[Nle]RCSASVECKQKCLKAIGSIFGKCMNKKCKCYPR-NH2; disulfide 6-27, 12-32, 16-34) | 120 pM |
| CC[C@H](C)[C@@H]1NC(=O)[C@H](CCCCN)NC(=O)[C@H](CC(C)C)NC(=O)[C@@H]2CSSC[C@@H](C(=O)N[C@@H](Cc3ccc(O)cc3)C(=O)N3CCC[C@H]3C(=O)N[C@@H](CCCNC(=N)N)C(N)=O)NC(=O)[C@H](CCCCN)NC(=O)[C@@H]3CSSC[C@H](NC(=O)[C@H](CCC(=O)O)NC(=O)[C@H](C(C)C)NC(=O)[C@H](CO)NC(=O)[C@H](C)NC(=O)[C@H](CO)NC(=O)[C@@H](NC(=O)[C@H](CCCNC(=N)N)NC(=O)[C@H](CCSC)NC(=O)[C@H](CC(=O)O)NC(=O)[C@H](CCSC)NC(=O)[C@@H](N)CC(N)=O)CSSC[C@H](NC(=O)[C@H](CCCCN)NC(=O)CNC(=O)[C@H](Cc4ccccc4)NC(=O)[C@H]([C@@H](C)CC)NC(=O)[C@H](CO)NC(=O)CNC1=O)C(=O)N[C@@H](CCSC)C(=O)N[C@@H](CC(N)=O)C(=O)N[C@@H](CCCCN)C(=O)N[C@@H](CCCCN)C(=O)N3)C(=O)N[C@@H](CCCCN)C(=O)N[C@@H](CCC(N)=O)C(=O)N[C@@H](CCCCN)C(=O)N2 [Compound 57] (H-NMDMRCSASVECKQKCLKIGSIFGKCMNKKCKCYPR-NH2; disulfide 6-26, 12-31, 16-33) | 110 pM |
| CC[C@H](C)[C@@H]1NC(=O)[C@H](CO)NC(=O)CNC(=O)[C@H](CCC(=O)O)NC(=O)[C@H](C)NC(=O)[C@H](CCCCN)NC(=O)[C@H](CC(C)C)NC(=O)[C@@H]2CSSC[C@@H](C(=O)N[C@@H](Cc3ccc(O)cc3)C(=O)N3CCC[C@H]3C(=O)N[C@@H](CCCNC(=N)N)C(N)=O)NC(=O)[C@H](CCCCN)NC(=O)[C@@H]3CSSC[C@H](NC(=O)[C@H](CCC(=O)O)NC(=O)[C@H](C(C)C)NC(=O)[C@H](CO)NC(=O)[C@H](C)NC(=O)[C@H](CO)NC(=O)[C@@H](NC(=O)[C@H](CCCNC(=N)N)NC(=O)[C@H](CCSC)NC(=O)[C@H](CC(=O)O)NC(=O)[C@H](CCSC)NC(=O)[C@@H](N)CC(N)=O)CSSC[C@H](NC(=O)[C@H](CCCCN)NC(=O)CNC(=O)[C@H](Cc4ccccc4)NC1=O)C(=O)N[C@@H](CCSC)C(=O)N[C@@H](CC(N)=O)C(=O)N[C@@H](CCCCN)C(=O)N[C@@H](CCCCN)C(=O)N3)C(=O)N[C@@H](CCCCN)C(=O)N[C@@H](CCC(N)=O)C(=O)N[C@@H](CCCCN)C(=O)N2 [Compound 59] (H-NMDMRCSASVECKQKCLKAEGSIFGKCMNKKCKCYPR-NH2; disulfide 6-27, 12-32, 16-34) | 35 pM |
| CC[C@H](C)[C@@H]1NC(=O)[C@H](CO)NC(=O)CNC(=O)[C@H](CCCNC(=N)N)NC(=O)[C@H](C)NC(=O)[C@H](CCCCN)NC(=O)[C@H](CC(C)C)NC(=O)[C@@H]2CSSC[C@@H](C(=O)N[C@@H](Cc3ccc(O)cc3)C(=O)N3CCC[C@H]3C(=O)N[C@@H](CCCNC(=N)N)C(N)=O)NC(=O)[C@H](CCCCN)NC(=O)[C@@H]3CSSC[C@H](NC(=O)[C@H](CCC(=O)O)NC(=O)[C@H](C(C)C)NC(=O)[C@H](CO)NC(=O)[C@H](C)NC(=O)[C@H](CO)NC(=O)[C@@H](NC(=O)[C@H](CCCNC(=N)N)NC(=O)[C@H](CCSC)NC(=O)[C@H](CC(=O)O)NC(=O)[C@H](CCSC)NC(=O)[C@@H](N)CC(N)=O)CSSC[C@H](NC(=O)[C@H](CCCCN)NC(=O)CNC(=O)[C@H](Cc4ccccc4)NC1=O)C(=O)N[C@@H](CCSC)C(=O)N[C@@H](CC(N)=O)C(=O)N[C@@H](CCCCN)C(=O)N[C@@H](CCCCN)C(=O)N3)C(=O)N[C@@H](CCCCN)C(=O)N[C@@H](CCC(N)=O)C(=O)N[C@@H](CCCCN)C(=O)N2 [Compound 60] (H-NMDMRCSASVECKQKCLKARGSIFGKCMNKKCKCYPR-NH2; disulfide 6-27, 12-32, 16-34) | 35 pM |
| CC[C@H](C)[C@@H]1NC(=O)[C@H](CO)NC(=O)CNC(=O)[C@H](C)NC(=O)[C@H](CCCCN)NC(=O)[C@H](CC(C)C)NC(=O)[C@@H]2CSSC[C@@H](C(=O)N[C@@H](Cc3ccc(O)cc3)C(=O)N3CCC[C@H]3C(=O)N[C@@H](CCCNC(=N)N)C(N)=O)NC(=O)[C@H](CCCCN)NC(=O)[C@@H]3CSSC[C@H](NC(=O)[C@H](CCC(=O)O)NC(=O)[C@H](C(C)C)NC(=O)[C@H](CO)NC(=O)[C@H](C)NC(=O)[C@H](CO)NC(=O)[C@@H](NC(=O)[C@H](CCCNC(=N)N)NC(=O)[C@H](CCSC)NC(=O)[C@H](CC(=O)O)NC(=O)[C@H](CCSC)NC(=O)[C@@H](N)CC(N)=O)CSSC[C@H](NC(=O)[C@H](CCCCN)NC(=O)CNC(=O)[C@H](Cc4ccccc4)NC1=O)C(=O)N[C@@H](CCSC)C(=O)N[C@@H](CC(N)=O)C(=O)N[C@@H](CCCCN)C(=O)N[C@@H](CCCCN)C(=O)N3)C(=O)N[C@@H](CCCCN)C(=O)N[C@@H](CCC(N)=O)C(=O)N[C@@H](CCCCN)C(=O)N2 [Compound 61] (H-NMDMRCSASVECKQKCLKAGSIFGKCMNKKCKCYPR-NH2; disulfide 6-26, 12-31, 16-33) | 400 pM |
| CCCC[C@H](NC(=O)[C@H](CC(=O)O)NC(=O)[C@H](CCCC)NC(=O)[C@@H](N)CO)C(=O)N[C@@H](CCCNC(=N)N)C(=O)N[C@H]1CSSC[C@@H]2NC(=O)[C@H](CCCCN)NC(=O)CNC(=O)[C@H](Cc3ccccc3)NC(=O)[C@H]([C@@H](C)CC)NC(=O)[C@H](CO)NC(=O)CNC(=O)[C@H]([C@@H](C)CC)NC(=O)[C@H](C)NC(=O)CNC(=O)[C@H](CC(C)C)NC(=O)[C@@H]3CSSC[C@@H](C(=O)N[C@@H](Cc4ccc(O)cc4)C(=O)N4CCC[C@H]4C(=O)N[C@@H](CCCNC(=N)N)C(N)=O)NC(=O)[C@H](CCCCN)NC(=O)[C@H](CSSC[C@H](NC(=O)[C@H](CCC(=O)O)NC(=O)[C@H](C(C)C)NC(=O)[C@H](CO)NC(=O)[C@H](C)NC(=O)[C@H](CO)NC1=O)C(=O)N[C@@H](CCCCN)C(=O)N[C@@H](CCC(N)=O)C(=O)N[C@@H](CCCCN)C(=O)N3)NC(=O)[C@H](CCCCN)NC(=O)[C@H](CCCCN)NC(=O)[C@H](CC(N)=O)NC(=O)[C@H](CCSC)NC2=O [Compound 77] (H-S[Nle]D[Nle]RCSASVECKQKCLGAIGSIFGKCMNKKCKCYPR-NH2; disulfide 6-27, 12-32, 16-34) | 130 pM |
